Results on 24 compounds are retold here after PubChem BioAssay AID256 (DTP/NCI, 2004).

SMILES strings stand for the structures. Values joined by “and” are separate entries in the source; they are usually repeats but may differ in a detail not shown here. Identical values can stand only once. Inconclusive results and toxic doses are left out.

The subject of this experiment is CD2F1 mice, L1210 leukemia ip, survival T/C. Description: NCI In Vivo Anticancer Drug Screen. Data for tumor model L1210 Leukemia (intraperitoneal) in CD2F1 (CDF1) mice. The conditions noted are these: higher = longer survival. The method in brief:
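Implant tumor; dose compound or vehicle; measure endpoint in both groups; report treated divided by control.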

[1] abbreviates: endpoint: mean survival time, dose: 100.0 mg/kg/injection, schedule: Q01DX001 (ip), vehicle: saline with Tween-80.
[2] abbreviates: endpoint: mean survival time, dose: 100.0 mg/kg/injection, schedule: Q01DX009 (ip), vehicle: saline with Tween-80.
Where [3] appears, read: endpoint: mean survival time, dose: 200.0 mg/kg/injection, schedule: Q01DX001 (ip), vehicle: saline with Tween-80.
Where [4] appears, read: endpoint: mean survival time, dose: 200.0 mg/kg/injection, schedule: Q01DX009 (ip), vehicle: saline with Tween-80.
Setting [5] is: endpoint: mean survival time, dose: 400.0 mg/kg/injection, schedule: Q01DX009 (ip), vehicle: saline with Tween-80.
[6] abbreviates: endpoint: mean survival time, dose: 50.0 mg/kg/injection, schedule: Q01DX009 (ip), vehicle: saline with Tween-80.
[7] abbreviates: endpoint: mean survival time, dose: 100.0 mg/kg/injection, schedule: Q04DX002 (ip), vehicle: saline with Tween-80.
The mark [8] stands for this setting: endpoint: mean survival time, dose: 100.0 mg/kg/injection, schedule: Q01DX001 (ip), vehicle: saline.
Where [9] appears, read: endpoint: mean survival time, dose: 200.0 mg/kg/injection, schedule: Q01DX001 (ip), vehicle: saline.
Setting [10] is: endpoint: mean survival time, dose: 75.0 mg/kg/injection, schedule: Q01DX001 (ip), vehicle: other.
The mark [11] stands for this setting: endpoint: mean survival time, dose: 150.0 mg/kg/injection, schedule: Q01DX001 (ip), vehicle: other.

As to `COC(=O)C(Cc1c[nH]c2ccccc12)NC(=O)C(Cc1c[nH]c2ccccc12)NC(=O)OC(C)(C)C` (centres undefined), the T/C is 87 % of control under setting [1]; 98 % of control under setting [2]; 96 % of control under setting [3]; 96 % of control under setting [4]; 100 % of control (endpoint: mean survival time, dose: 400.0 mg/kg/injection, schedule: Q01DX001 (ip), vehicle: saline with Tween-80); 104 % of control under setting [5].
Take `COc1cc2c(cc1O)CCCCC2`: the T/C (endpoint: mean survival time, dose: 50.0 mg/kg/injection, schedule: Q01DX009 (ip), vehicle: other) is 100 % of control; the T/C (endpoint: mean survival time, dose: 100.0 mg/kg/injection, schedule: Q01DX009 (ip), vehicle: other) is 103 % of control; the T/C (endpoint: mean survival time, dose: 200.0 mg/kg/injection, schedule: Q01DX009 (ip), vehicle: other) is 92 % of control.
Consider `O=C1OC2(c3ccccc31)c1ccccc1-c1ccccc12`, for which the T/C runs as follows: under setting [6], 97 % of control; under setting [2], 100 % of control; under setting [4], 100 % of control.
Regarding `ClCCN(CCCl)c1ccc(CCCCN2CCOCC2)cc1`, the T/C is 119 % of control (endpoint: mean survival time, dose: 10.0 mg/kg/injection, schedule: Q01DX009 (ip), vehicle: saline) and 103 % of control (endpoint: mean survival time, dose: 40.0 mg/kg/injection, schedule: Q01DX009 (ip), vehicle: saline).
As to `CC(Sc1ccccc1)C(=O)OC1C=CCCC1` (centres undefined), the T/C was 98 % of control under setting [7]; 106 % of control (endpoint: mean survival time, dose: 200.0 mg/kg/injection, schedule: Q04DX002 (ip), vehicle: saline with Tween-80); 98 % of control (endpoint: mean survival time, dose: 400.0 mg/kg/injection, schedule: Q04DX002 (ip), vehicle: saline with Tween-80).
As for `Cc1nc2ccccn2c(=O)c1Br`, the T/C is 104 % of control (endpoint: mean survival time, dose: 50.0 mg/kg/injection, schedule: Q01DX001 (ip), vehicle: saline); 104 % of control under setting [8]; 104 % of control under setting [9].
For the compound `CCN(CC(C)Cl)c1ccc(NC(=O)c2cc(N3CC3)c([N+](=O)[O-])cc2[N+](=O)[O-])cc1` (centres undefined), the T/C runs as follows: (endpoint: mean survival time, dose: 22.0 mg/kg/injection, schedule: Q01DX001 (ip), vehicle: Klucel (hydroxypropylcellulose) (HPC)) 97 % of control; (endpoint: mean survival time, dose: 44.0 mg/kg/injection, schedule: Q01DX001 (ip), vehicle: Klucel (hydroxypropylcellulose) (HPC)) 97 % of control; (endpoint: mean survival time, dose: 88.0 mg/kg/injection, schedule: Q01DX001 (ip), vehicle: Klucel (hydroxypropylcellulose) (HPC)) 103 % of control.
Turning to `N#Cc1ccc([N+](=O)[O-])o1`, the T/C is 104 % of control (endpoint: mean survival time, dose: 12.5 mg/kg/injection, schedule: Q01DX009 (ip), vehicle: saline with Tween-80); 101 % of control (endpoint: mean survival time, dose: 25.0 mg/kg/injection, schedule: Q01DX009 (ip), vehicle: saline with Tween-80); 102 % of control (endpoint: mean survival time, dose: 25.0 mg/kg/injection, schedule: Q04DX003 (ip), vehicle: saline with Tween-80); 92 % of control under setting [6]; 96 % of control (endpoint: mean survival time, dose: 50.0 mg/kg/injection, schedule: Q04DX003 (ip), vehicle: saline with Tween-80).
For the compound `CC1=C(N2CC2)C(=O)c2c(COC(N)=O)c3n(c2C1=O)C[C@H]1N[C@@H]31`, the T/C (endpoint: mean survival time, dose: 3.0 mg/kg/injection, schedule: Q01DX001 (ip), vehicle: distilled water + Tween-80) is 106 % of control; the T/C (endpoint: mean survival time, dose: 6.0 mg/kg/injection, schedule: Q01DX001 (ip), vehicle: distilled water + Tween-80) was 118 % of control; the T/C (endpoint: mean survival time, dose: 12.0 mg/kg/injection, schedule: Q01DX001 (ip), vehicle: distilled water + Tween-80) is 122 % of control; the T/C (endpoint: mean survival time, dose: 24.0 mg/kg/injection, schedule: Q01DX001 (ip), vehicle: distilled water + Tween-80) was 120 % of control.
In the case of `Cc1cn(C2CC(O)C(CO)O2)c(=O)nc1NC1CC1` (centres undefined), the T/C (endpoint: median survival time, dose: 12.5 mg/kg/injection, schedule: Q01DX005 (ip), vehicle: water) is 102 % of control; the T/C (endpoint: median survival time, dose: 25.0 mg/kg/injection, schedule: Q01DX005 (ip), vehicle: water) was 102 % of control; the T/C (endpoint: median survival time, dose: 50.0 mg/kg/injection, schedule: Q01DX005 (ip), vehicle: water) was 104 % of control; the T/C (endpoint: median survival time, dose: 100.0 mg/kg/injection, schedule: Q01DX005 (ip), vehicle: water) was 103 % of control; the T/C (endpoint: median survival time, dose: 200.0 mg/kg/injection, schedule: Q01DX005 (ip), vehicle: water) is 102 % of control.
Consider `ClCC(Cl)C(Cl)CCl` (centres undefined), for which the T/C is, setting by setting: (endpoint: mean survival time, dose: 50.0 mg/kg/injection, schedule: Q01DX001 (ip), vehicle: saline with Tween-80) 95 % of control; under setting [1], 109 % of control; under setting [3], 86 % of control.
`CCCCCCCC/C=C\CCCCCCCC(=O)NCCCN(C)CCCNC(=O)CCCCCCC/C=C/CCCCCCCC`: the T/C is 100 % of control under setting [10]; 104 % of control under setting [11]; 100 % of control (endpoint: mean survival time, dose: 300.0 mg/kg/injection, schedule: Q01DX001 (ip), vehicle: other).
With `O=[N+]([O-])c1cc[n+]([O-])cc1`, the T/C (endpoint: mean survival time, dose: 75.0 mg/kg/injection, schedule: Q01DX001 (ip), vehicle: saline) was 106 % of control.
Turning to `CC1CN1C(=O)Nc1cccc2c(NC(=O)N3CC3C)cccc12` (centres undefined), the T/C (endpoint: mean survival time, dose: 28.0 mg/kg/injection, schedule: Q01DX009 (ip), vehicle: Klucel (hydroxypropylcellulose) (HPC)) is 151 % of control.
For `OC1CC2c3ccccc3C1c1cccc[n+]12` (centres undefined), the T/C (endpoint: mean survival time, dose: 100.0 mg/kg/injection, schedule: Q04DX003 (ip), vehicle: Klucel (hydroxypropylcellulose) (HPC)) is 94 % of control.
As to `CCCCCCOc1ccc(N=Cc2ccc(N(C)C)cc2)cc1`, the T/C is, setting by setting: under setting [10], 93 % of control; under setting [11], 94 % of control.
Consider `CCCCCCCC(=O)NC1CCC(C(C)(C)C)CC1` (centres undefined), for which the T/C is 93 % of control (endpoint: mean survival time, dose: 100.0 mg/kg/injection, schedule: Q04DX003 (ip), vehicle: other); 94 % of control (endpoint: mean survival time, dose: 200.0 mg/kg/injection, schedule: Q04DX003 (ip), vehicle: other); 89 % of control (endpoint: mean survival time, dose: 400.0 mg/kg/injection, schedule: Q04DX003 (ip), vehicle: other).
On to `O=S(=O)(c1ccccc1)c1ccc(Br)cc1`, for which the T/C is 94 % of control under setting [2], 96 % of control under setting [4] and 98 % of control under setting [5].
For the compound `[Cl][Pt+2][Cl].[NH-]c1ccc(F)c(Cl)c1.[NH-]c1ccc(F)c(Cl)c1`, the T/C is, setting by setting: (endpoint: mean survival time, dose: 3.13 mg/kg/injection, schedule: Q04DX003 (ip), vehicle: distilled water + Tween-80) 108 % of control; (endpoint: mean survival time, dose: 6.25 mg/kg/injection, schedule: Q04DX003 (ip), vehicle: distilled water + Tween-80) 103 % of control; (endpoint: mean survival time, dose: 12.5 mg/kg/injection, schedule: Q04DX003 (ip), vehicle: distilled water + Tween-80) 110 % of control; (endpoint: mean survival time, dose: 25.0 mg/kg/injection, schedule: Q04DX003 (ip), vehicle: distilled water + Tween-80) 110 % of control; (endpoint: mean survival time, dose: 50.0 mg/kg/injection, schedule: Q04DX003 (ip), vehicle: distilled water + Tween-80) 110 % of control.
Turning to `CC1CCCC(CN=Cc2ccccc2O)[N-]1.CC1CCCC(CN=Cc2ccccc2O)[N-]1.[Ni+2]` (centres undefined), the T/C is 98 % of control (endpoint: mean survival time, dose: 6.25 mg/kg/injection, schedule: Q04DX002 (ip), vehicle: saline with Tween-80); 95 % of control (endpoint: mean survival time, dose: 12.5 mg/kg/injection, schedule: Q04DX002 (ip), vehicle: saline with Tween-80); 91 % of control and 95 % of control (endpoint: mean survival time, dose: 25.0 mg/kg/injection, schedule: Q04DX002 (ip), vehicle: saline with Tween-80); 91 % of control (endpoint: mean survival time, dose: 50.0 mg/kg/injection, schedule: Q04DX002 (ip), vehicle: saline with Tween-80); 97 % of control under setting [7].
As for `O=CN(Cc1ccccc1)c1cc([N+](=O)[O-])ccc1OCc1ccccc1`, the T/C under setting [8] is 96 % of control; the T/C under setting [9] is 94 % of control; the T/C (endpoint: mean survival time, dose: 400.0 mg/kg/injection, schedule: Q01DX001 (ip), vehicle: saline) is 100 % of control.
Take `COc1cc(/C=C\[N+](=O)[O-])c([N+](=O)[O-])cc1OCc1ccccc1`: the T/C reads like this: under setting [1], 94 % of control; under setting [3], 97 % of control.
As for `COC(=O)C(CCSC)NC(=O)C(C)NC(=O)OCc1ccccc1` (centres undefined), the T/C is, setting by setting: under setting [2], 98 % of control; under setting [4], 95 % of control; under setting [5], 95 % of control.
Take `c1cc2c(c(OCC3=NCCN3)c1)CCCC2`: the T/C by setting is: (endpoint: mean survival time, dose: 25.0 mg/kg/injection, schedule: Q04DX002 (ip), vehicle: saline) 94 % of control; (endpoint: mean survival time, dose: 50.0 mg/kg/injection, schedule: Q04DX002 (ip), vehicle: saline) 110 % of control.
